The assay relates to Mycobacterium tuberculosis. Kind of assay: Antibacterial activity against multi drug resistant Mycobacterium tuberculosis. It is filed as functional.

For orientation: MIC90 means an inhibitory concentration at the 90% level, which refers to growth in some studies and to a panel of isolates in others. Low readings indicate higher susceptibility, high ones lower susceptibility.

Molecules are shown by their SMILES. Converted amounts (≈) assume the structure as drawn.

On to `CC(=O)NC[C@H]1CN(c2ccc(N3CCN(c4ccc([N+](=O)[O-])s4)CC3)c(F)c2)C(=O)O1`, for which the MIC90 was 1 mg/L (≈ 2.16 µM).
